The values that follow come from ChEMBL document CHEMBL1201862, “PubChem BioAssay data set” (2004).

SMILES strings stand for the structures.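 96-well plates; 48 h exposure; 5 concentrations. Endpoints by linear interpolation between flanking doses. Not reached: highest tested concentration assigned. Here, GI50 denotes the concentration required for 50% inhibition of growth.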 The source made the active and inactive calls. No stated cut-off is given here; in the data, active = GI50 up to about 1.1 µM and inactive = higher.

Some test systems named below: K562; UACC-257; COLO 205; CCRF-CEM; SNB-19; SF-295; NCI-H23; MOLT-4; TK-10; SK-OV-3; ACHN; HCT-15; MDA-N; A498; NCI/ADR-RES; SK-MEL-2; OVCAR-5; NCI-H226; MDA-MB-231.
Common to all, as to assay: inhibition of tumour cell growth, NCI panel, 48 h

`Brc1ccc(C[N+]23CN4CN(CN(C4)C2)C3)cc1`: the GI50 with K562 was 25.4 µM (inactive); with UACC-257, 30.5 µM (inactive); in the test on COLO 205, 26.3 µM (inactive); in the test on CCRF-CEM, 20.5 µM (inactive); in the test on SNB-19, > 100 µM (inactive); in the test on SF-295, > 100 µM (inactive). For the same compound, the GI50 in the test on NCI-H23 is 29.1 µM (inactive); in the test on MOLT-4, 20.5 µM (inactive); in the test with TK-10, > 100 µM (inactive); in the test on SK-OV-3 it was > 100 µM (inactive); in the test on ACHN, 44.6 µM (inactive); in the test on HCT-15, 24.2 µM.
For `CCOC(=O)[C@H]1C[C@]23CN(C(=O)OC(C)(C)C)CC[C@H]2CCC2(SCCCS2)[C@@H]3N1C`, the GI50 in the test with K562 is 36.6 µM (inactive); in the test with UACC-257, 25.6 µM (inactive); with MDA-N, 30.1 µM (inactive); in the test with COLO 205 it was 28.2 µM (inactive); in the test with CCRF-CEM it was 29.1 µM (inactive); in the test on SNB-19, 76 µM (inactive). Besides, the GI50 was 38.3 µM (inactive) with SF-295; 52.2 µM (inactive) in the test with A498; 42 µM (inactive) in the test with NCI-H23; 24.3 µM (inactive) in the test with MOLT-4; 36.6 µM (inactive) in the test on TK-10; > 100 µM (inactive) in the test on SK-OV-3. The GI50 with NCI/ADR-RES is 27.2 µM (inactive); in the test on SK-MEL-2 it was 22.2 µM (inactive); with ACHN it was 40.9 µM (inactive); with HCT-15, 38.1 µM; with OVCAR-5, 50.5 µM (inactive); in the test on NCI-H226 it was 29.6 µM (inactive).
For `C=C1CCC[C@@H](C)C(O)[C@@H]2OC(=O)C(=C)[C@@H]2C[C@@H](OC(C)=O)[C@@]2(C)CC[C@@H]1O2` (some centres undefined), the GI50 is 5.5 µM (inactive) in the test on K562; 8.18 µM (inactive) in the test with UACC-257; 6.37 µM (inactive) with COLO 205; 1.54 µM (inactive) with CCRF-CEM; 45.2 µM (inactive) in the test with SNB-19; 11.1 µM (inactive) in the test on SF-295. In addition, the GI50 with A498 is 9.84 µM (inactive); in the test on NCI-H23, 8.09 µM (inactive); in the test on MOLT-4, 4.84 µM (inactive); in the test on TK-10, 7.96 µM (inactive); in the test on SK-OV-3, 10.8 µM (inactive); in the test on NCI/ADR-RES, 6.78 µM (inactive). The GI50 with MDA-MB-231 is 8.36 µM (inactive); with SK-MEL-2, 8.34 µM (inactive); with ACHN, 6.89 µM (inactive); with HCT-15, 3.78 µM; in the test on OVCAR-5 it was 7.87 µM (inactive); in the test with NCI-H226, 8.49 µM (inactive).
With `COC1C(CN[N+](=O)CC2OC3OC(C)(C)OC3C2OC)OC2OC(C)(C)OC21` (centres undefined), the GI50 in the test with K562 was > 10 µM (inactive); in the test on UACC-257, > 100 µM (inactive); in the test with COLO 205 it was > 100 µM (inactive); in the test with CCRF-CEM it was > 100 µM (inactive); with SNB-19, > 100 µM (inactive); with SF-295, > 100 µM (inactive). Also, the GI50 with A498, in the test on NCI-H23, in the test on MOLT-4, with TK-10, in the test on SK-OV-3 and with SK-MEL-2 was > 100 µM (inactive) in each case. Besides, the GI50 was > 100 µM (inactive) in the test with ACHN, over 100 µM with HCT-15, > 100 µM (inactive) with OVCAR-5 and > 100 µM (inactive) in the test on NCI-H226.
With `c1ccc2c(c1)SCCCSCCSCCCS2`, the GI50 with K562, in the test on UACC-257, in the test with MDA-N, in the test with COLO 205, in the test with CCRF-CEM and in the test with SNB-19 was > 100 µM (inactive) in each case. The GI50 in the test on SF-295, in the test with NCI-H23, in the test on MOLT-4, in the test on TK-10, in the test with SK-OV-3 and with NCI/ADR-RES was > 100 µM (inactive) throughout. The GI50 with MDA-MB-231 was 57.3 µM (inactive); with HCT-15, over 100 µM; in the test with OVCAR-5, > 100 µM (inactive).
Consider `CC(C)=CCC[C@](C)(O[C@@H]1O[C@H](CO)[C@@H](O)[C@H](O)[C@H]1O)[C@H]1CC[C@]2(C)[C@@H]1[C@H](O)C[C@@H]1[C@@]3(C)CC[C@H](O)C(C)(C)[C@@H]3[C@@H](O[C@@H]3O[C@H](CO)[C@@H](O)[C@H](O)[C@H]3O)C[C@]12C` [GINSENOSIDE RG1], for which the GI50 with K562, with UACC-257, in the test on MDA-N, with COLO 205, in the test on CCRF-CEM and in the test on SNB-19 was > 100 µM (inactive) throughout. The GI50 in the test with SF-295, in the test with A498, in the test on NCI-H23, with TK-10, with SK-OV-3 and in the test on MDA-MB-231 was > 100 µM (inactive) each time. Moreover, the GI50 in the test on SK-MEL-2 is > 100 µM (inactive); in the test on ACHN it was > 100 µM (inactive); in the test on HCT-15, over 100 µM; in the test on OVCAR-5, > 100 µM (inactive); in the test with NCI-H226, > 100 µM (inactive).
For the compound `CC(=O)C(C)C(=O)N1C(=O)N(C)C2(C)N(C)C(=O)NC12C` (centres undefined), the GI50 in the test with MDA-N, in the test on COLO 205, in the test with SNB-19, in the test with SF-295, in the test on NCI-H23 and in the test with TK-10 was > 100 µM (inactive) throughout. Besides, the GI50 with SK-OV-3 is > 100 µM (inactive); with NCI/ADR-RES, > 100 µM (inactive); with MDA-MB-231, > 100 µM (inactive); in the test on SK-MEL-2, > 100 µM (inactive); in the test on ACHN, > 100 µM (inactive); in the test with HCT-15, over 100 µM. Further, the GI50 with OVCAR-5 is > 100 µM (inactive).
Turning to `COCP1(=S)OC(C)CCN1C(C)C` (centres undefined), the GI50 in the test with K562, in the test with UACC-257, with COLO 205, with SNB-19, in the test with SF-295 and with NCI-H23 was > 100 µM (inactive) throughout. The GI50 in the test on TK-10, with SK-OV-3, in the test on NCI/ADR-RES, in the test on MDA-MB-231, in the test with SK-MEL-2 and in the test with ACHN was > 100 µM (inactive) each time. The GI50 is over 100 µM with HCT-15, > 100 µM (inactive) with OVCAR-5 and > 100 µM (inactive) with NCI-H226.
`O=C(CC(C(=O)c1cccs1)c1ccsc1)c1ccc(Cl)s1` (centres undefined): the GI50 in the test with K562 is > 100 µM (inactive); in the test with UACC-257 it was 67.9 µM (inactive); in the test with COLO 205, > 100 µM (inactive); with CCRF-CEM, > 100 µM (inactive); in the test with SNB-19, 72.3 µM (inactive); in the test with A498, > 100 µM (inactive). For the same compound, the GI50 was > 100 µM (inactive) in the test on NCI-H23; 47.3 µM (inactive) in the test with MOLT-4; > 100 µM (inactive) with TK-10; > 100 µM (inactive) with SK-OV-3; 12.1 µM (inactive) in the test on NCI/ADR-RES; > 100 µM (inactive) in the test on MDA-MB-231. Moreover, the GI50 in the test with SK-MEL-2 was > 100 µM (inactive); in the test with ACHN it was 96.2 µM (inactive); with HCT-15 it was 73.3 µM; in the test with OVCAR-5 it was 31.4 µM (inactive); in the test on NCI-H226 it was > 100 µM (inactive).
As to `Clc1sc(Cl)c2c1[C@@H](Cl)C[C@@H]2Br`, the GI50 in the test on K562 is 34.2 µM (inactive); in the test with UACC-257, 70.1 µM (inactive); with MDA-N it was 84.3 µM (inactive); in the test with COLO 205, > 100 µM (inactive); with CCRF-CEM it was 33.3 µM (inactive); with SNB-19, > 100 µM (inactive). Also, the GI50 was > 100 µM (inactive) with SF-295; 61.4 µM (inactive) in the test on NCI-H23; 18.6 µM (inactive) with MOLT-4; > 100 µM (inactive) with TK-10; > 100 µM (inactive) in the test on SK-OV-3; > 100 µM (inactive) in the test with MDA-MB-231. Also, the GI50 with SK-MEL-2 was > 100 µM (inactive); with ACHN it was > 100 µM (inactive); with HCT-15, 97.1 µM; with OVCAR-5 it was > 100 µM (inactive).
As to `COc1ccccc1/C=C1\C(=O)N(C(=O)Cc2ccccc2)N=C1C`, the GI50 in the test with K562, with UACC-257, in the test with COLO 205, in the test with CCRF-CEM, in the test on SNB-19 and in the test with SF-295 was > 100 µM (inactive) each time. Also, the GI50 was > 100 µM (inactive) with NCI-H23; > 100 µM (inactive) in the test on MOLT-4; > 100 µM (inactive) with TK-10; > 100 µM (inactive) in the test on SK-MEL-2; > 100 µM (inactive) in the test on ACHN; over 100 µM with HCT-15. Also, the GI50 in the test on OVCAR-5 and in the test with NCI-H226 was > 100 µM (inactive) in each case.
Take `O=c1cc(-c2ccccc2)oc2ccc(Oc3nnnn3-c3ccccc3)cc12`: the GI50 was 3.58 µM (inactive) in the test on K562; > 100 µM (inactive) in the test on UACC-257; 5.15 µM (inactive) in the test with MDA-N; > 87.3 µM (inactive) with COLO 205; > 100 µM (inactive) in the test with CCRF-CEM; 33.2 µM (inactive) in the test on SNB-19. Besides, the GI50 in the test on SF-295 is 29.2 µM (inactive); in the test with A498, 90.2 µM (inactive); with NCI-H23, > 62.7 µM (inactive); in the test with MOLT-4 it was > 100 µM (inactive); with TK-10 it was > 100 µM (inactive); in the test with SK-OV-3, > 65.3 µM (inactive). The GI50 in the test on NCI/ADR-RES is 78.2 µM (inactive); in the test with SK-MEL-2 it was 39.2 µM (inactive); in the test with ACHN, > 64.4 µM (inactive); with HCT-15, over 100 µM; in the test on OVCAR-5 it was > 100 µM (inactive); with NCI-H226, 25 µM (inactive).
